In the test the target is T1, HPK1 kinase (aa1-346, Life Technologies) (Homo sapiens, UniProt Q92918).
T1 construct: HPK1 kinase (aa1-346, Life Technologies); purchased Life Technologies
T1 sequence (Q92918 1-346): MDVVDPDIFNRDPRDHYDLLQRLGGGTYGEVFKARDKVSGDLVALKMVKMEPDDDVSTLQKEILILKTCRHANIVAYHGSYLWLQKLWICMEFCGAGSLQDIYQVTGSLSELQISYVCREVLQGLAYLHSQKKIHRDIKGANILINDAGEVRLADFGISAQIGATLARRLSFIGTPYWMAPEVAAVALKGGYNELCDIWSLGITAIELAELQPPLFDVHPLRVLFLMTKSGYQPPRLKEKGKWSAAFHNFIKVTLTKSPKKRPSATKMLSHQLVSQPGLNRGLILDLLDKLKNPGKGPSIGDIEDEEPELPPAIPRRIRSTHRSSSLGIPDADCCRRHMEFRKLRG
In words: HPK1 Kinase Activity Assay at 1 mM ATP (TR-FRET). The class given is biochemical. As to conditions: HPK1 40 nM, read-out: Enzymatic activity IC50. How it is done: HPK1 Kinase Activity Assay at 1 mM ATP
Compounds disclosed herein were tested for inhibition of HPK1 kinase (aa1-346, Life Technologies) activity in assays based on the time-resolved fluorescence-resonance energy transfer (TR-FRET) methodology. The assays were carried out in 384-well low volume black plates in a reaction mixture containing HPK1 kinase (40 nM), 1 mM ATP, 0.5 μM STK1 substrate and 0-10 μM compound in buffer containing 50 mM HEPES, 0.01% BSA, 0.1 mM Orthovanadate, 10 mM MgCl2, 1 mM DTT, pH=7.0, 0.005% Tween-20. The kinase was incubated with the compounds disclosed herein or DMSO for 60 minutes at room temperature and the reaction was initiated by the addition of ATP and STK1 substrate. After reaction at room temperature for 120 minutes, an equal volume of stop/detection solution was added according to the manufacturer's instruction (CisBio). The stop/detection solution contained STK Antibody-Cryptate and XL665-conjugated streptavidin in Detection Buffer. The TR-FRET signals (ratio of fluorescence emission at 665 nm over emission at 620 nm with excitation at 337 nm wavelength) were recorded on a PHERAstar FS plate reader (BMG Labtech). Phosphorylation of STK1 substrate led to the binding of STK Antibody-Cryptate to the biotinylated STK1 substrate, which places fluorescent donor (Eu^3+ cryptate) in close proximity to the accepter (Streptavidin-XL665), thus resulting in a high degree of fluorescence resonance energy transfer. The inhibition of HPK1 in presence of increasing concentrations of compounds was calculated based on the ratio of fluorescence at 665 nm to that at 620 nm. The IC50 for each compound was derived from fitting the data to the four-parameter logistic equation by Graphpad Prism software.
For the compound `COc1ccc(NC(=O)CCN2CCc3c(C)cc(-c4cnc5[nH]cc(-c6ccc(C(=O)N(C)C)c(C)c6)c5n4)cc3C2)cc1` [Example 27, 4-(2-(2-(3-(4-methoxyphenylamino)-3-oxopropyl)-5-methyl-1,2,3,4-tetrahydroisoquinolin-7-yl)-5H-pyrrolo[2,3-b]pyrazin-7-yl)-N, N, 2-trimethylbenzamide], the IC50 was determined as 26 nM. Turning to `Cc1cc(-c2c[nH]c3ncc(-c4cc(C)c5c(c4)CN(CCC(=O)NC4CCOCC4)CC5)nc23)ccc1C(=O)N(C)C` [Example 28, N, N, 2-trimethyl-4-(2-(5-methyl-2-(3-oxo-3-(tetrahydro-2H-pyran-4-ylamino)propyl)-1,2,3,4-tetrahydroisoquinolin-7-yl)-5H-pyrrolo[2,3-b]pyrazin-7-yl)benzamide], the IC50 came to 67 nM.

With `Cc1cc(-c2c[nH]c3ncc(-c4cc(C)c5c(c4)CN(CCC(=O)NC[C@@H](C)O)CC5)nc23)ccc1C(=O)N(C)C` [Example 29, (R)-4-(2-(2-(3-(2-hydroxypropylamino)-3-oxopropyl)-5-methyl-1,2,3,4-tetrahydroisoquinolin-7-yl)-5H-pyrrolo[2,3-b]pyrazin-7-yl)-N, N, 2-trimethylbenzamide], the IC50 was found to be 46 nM. Under `Cc1cc(-c2c[nH]c3ncc(-c4cc(C)c5c(c4)CN(CCC(=O)NC[C@H](C)O)CC5)nc23)ccc1C(=O)N(C)C` [Example 30, (S)-4-(2-(2-(3-(2-hydroxypropylamino)-3-oxopropyl)-5-methyl-1,2,3,4-tetrahydroisoquinolin-7-yl)-5H-pyrrolo[2,3-b]pyrazin-7-yl)-N, N, 2-trimethylbenzamide] stands 63 nM. Regarding `Cc1cc(-c2c[nH]c3ncc(-c4cc(C)c5c(c4)CN(CCC(=O)NC4(CO)CC4)CC5)nc23)ccc1C(=O)N(C)C` [Example 31, 4-(2-(2-(3-(1-(hydroxymethyl)cyclopropylamino)-3-oxopropyl)-5-methyl-1,2,3,4-tetrahydroisoquinolin-7-yl)-5H-pyrrolo[2,3-b]pyrazin-7-yl)-N, N, 2-trimethylbenzamide], the IC50 stood at 53 nM. The result for `Cc1cc(-c2c[nH]c3ncc(-c4cc(C)c5c(c4)CN(CCC(=O)NCC4(O)CC4)CC5)nc23)ccc1C(=O)N(C)C` [Example 32, 4-(2-(2-(3-((1-hydroxycyclopropyl)methylamino)-3-oxopropyl)-5-methyl-1,2,3,4-tetrahydroisoquinolin-7-yl)-5H-pyrrolo[2,3-b]pyrazin-7-yl)-N, N, 2-trimethylbenzamide] reads 71 nM; that for `Cc1cc(-c2c[nH]c3ncc(-c4cc(C)c5c(c4)CN(CCC(=O)NCC(C)(C)O)CC5)nc23)ccc1C(=O)N(C)C` [Example 33, 4-(2-(2-(3-(2-hydroxy-2-methylpropylamino)-3-oxopropyl)-5-methyl-1,2,3,4-tetrahydroisoquinolin-7-yl)-5H-pyrrolo[2,3-b]pyrazin-7-yl)-N, N, 2-trimethylbenzamide], 49 nM; that for `Cc1cc(-c2c[nH]c3ncc(-c4cc(C)c5c(c4)CN(CCC(=O)N[C@@H]4CCOC4)CC5)nc23)ccc1C(=O)N(C)C` [Example 34, (R)—N, N, 2-trimethyl-4-(2-(5-methyl-2-(3-oxo-3-(tetrahydrofuran-3-ylamino)propyl)-1,2,3,4-tetrahydroisoquinolin-7-yl)-5H-pyrrolo[2,3-b]pyrazin-7-yl)benzamide], 42 nM. The result for `Cc1cc(-c2cnc3[nH]cc(-c4ccc(C(=O)N(C)C[C@@H]5CCOC5)cc4)c3n2)cc2c1CCN(C)C2` [Example 35, (S)-4-(2-(2,5-dimethyl-1,2,3,4-tetrahydroisoquinolin-7-yl)-5H-pyrrolo[2,3-b]pyrazin-7-yl)-N-methyl-N-((tetrahydrofuran-3-yl)methyl)benzamide] reads 19 nM; that for `Cc1cc(-c2cnc3[nH]cc(-c4ccc(C(=O)N(C)C[C@@H]5CCOC5)cc4)c3n2)cc2c1CCN(CCN1CCC(C)(O)CC1)C2` [Example 36, (S)-4-(2-(2-(2-(4-hydroxy-4-methylpiperidin-1-yl)ethyl)-5-methyl-1,2,3,4-tetrahydroisoquinolin-7-yl)-5H-pyrrolo[2,3-b]pyrazin-7-yl)-N-methyl-N-((tetrahydrofuran-3-yl)methyl)benzamide], 39 nM. Under `Cc1cc(-c2cnc3[nH]cc(-c4ccc(C(=O)N(C)C)cc4)c3n2)cc2c1CCN(CCN1CCC(C)(O)CC1)C2` [Example 37, 4-(2-(2-(2-(4-hydroxy-4-methylpiperidin-1-yl)ethyl)-5-methyl-1,2,3,4-tetrahydroisoquinolin-7-yl)-5H-pyrrolo[2,3-b]pyrazin-7-yl)-N, N-dimethylbenzamide] stands 35 nM. Regarding `Cc1cc(-c2c[nH]c3ncc(-c4cc(C)c5c(c4)CN(C)CC5)nc23)ccc1C(=O)N(C)CC(C)(C)O` [Example 39, 4-(2-(2,5-dimethyl-1,2,3,4-tetrahydroisoquinolin-7-yl)-5H-pyrrolo[2,3-b]pyrazin-7-yl)-N-(2-hydroxy-2-methylpropyl)-N, 2-dimethylbenzamide], the IC50 turned out to be 186 nM.

For the compound `COCCCN(C)C(=O)c1ccc(-c2c[nH]c3ncc(-c4cc(C)c5c(c4)CN(C)CC5)nc23)cc1` [Example 40, 4-(2-(2,5-dimethyl-1,2,3,4-tetrahydroisoquinolin-7-yl)-5H-pyrrolo[2,3-b]pyrazin-7-yl)-N-(3-methoxypropyl)-N-methylbenzamide], the IC50 was determined as 17 nM. Under `Cc1cc(-c2c[nH]c3ncc(-c4cc(C)c5c(c4)CN(CCC(=O)N[C@H]4CC[C@@H](O)CC4)CC5)nc23)ccc1C(=O)N(C)C` [Example 41, 4-(2-(2-(3-((cis-4-hydroxycyclohexyl)amino)-3-oxopropyl)-5-methyl-1,2,3,4-tetrahydroisoquinolin-7-yl)-5H-pyrrolo[2,3-b]pyrazin-7-yl)-N, N, 2-trimethylbenzamide] stands 54 nM; under `Cc1cc(-c2c[nH]c3ncc(-c4cc(C)c5c(c4)CN(CCC(=O)NCCN4CCN(C)CC4)CC5)nc23)ccc1C(=O)N(C)C` [Example 42, N, N, 2-trimethyl-4-(2-(5-methyl-2-(3-((2-(4-methylpiperazin-1-yl)ethyl)amino)-3-oxopropyl)-1,2,3,4-tetrahydroisoquinolin-7-yl)-5H-pyrrolo[2,3-b]pyrazin-7-yl)benzamide], 85 nM.

For the compound `Cc1cc(-c2c[nH]c3ncc(-c4cc(C)c5c(c4)CN(CCC(=O)NC4CC4)CC5)nc23)ccc1C(=O)N(C)C` [Example 43, 4-(2-(2-(3-(cyclopropylamino)-3-oxopropyl)-5-methyl-1,2,3,4-tetrahydroisoquinolin-7-yl)-5H-pyrrolo[2,3-b]pyrazin-7-yl)-N, N, 2-trimethylbenzamide], the half-maximal inhibitory concentration (IC50) turned out to be 37 nM.

With `COCCCNC(=O)CCN1CCc2c(C)cc(-c3cnc4[nH]cc(-c5ccc(C(=O)N(C)C)c(C)c5)c4n3)cc2C1` [Example 44, 4-(2-(2-(3-((3-methoxypropyl)amino)-3-oxopropyl)-5-methyl-1,2,3,4-tetrahydroisoquinolin-7-yl)-5H-pyrrolo[2,3-b]pyrazin-7-yl)-N, N, 2-trimethylbenzamide], the IC50 is 82 nM. Under `Cc1cc(-c2c[nH]c3ncc(-c4cc(C)c5c(c4)CN(CCC(=O)NCCO)CC5)nc23)ccc1C(=O)N(C)C` [Example 45, 4-(2-(2-(3-((2-hydroxyethyl)amino)-3-oxopropyl)-5-methyl-1,2,3,4-tetrahydroisoquinolin-7-yl)-5H-pyrrolo[2,3-b]pyrazin-7-yl)-N, N, 2-trimethylbenzamide] stands 52 nM.

With `Cc1cc(-c2c[nH]c3ncc(-c4cc(C)c5c(c4)CN(CCC(=O)NCCCO)CC5)nc23)ccc1C(=O)N(C)C` [Example 46, 4-(2-(2-(3-((3-hydroxypropyl)amino)-3-oxopropyl)-5-methyl-1,2,3,4-tetrahydroisoquinolin-7-yl)-5H-pyrrolo[2,3-b]pyrazin-7-yl)-N, N, 2-trimethylbenzamide], the IC50 was found to be 65 nM. Under `Cc1cc(-c2cnc3[nH]cc(-c4ccc(C(=O)N(C)C)cc4)c3n2)cc2c1CCN(CCC(=O)NC1CC1)C2` [Example 47, 4-(2-(2-(3-(cyclopropylamino)-3-oxopropyl)-5-methyl-1,2,3,4-tetrahydroisoquinolin-7-yl)-5H-pyrrolo[2,3-b]pyrazin-7-yl)-N, N-dimethylbenzamide] stands 22 nM.

For the origin of these results see patent publication US12454534B2, “Pyrrolo[2,3-b]pyrazines as HPK1 inhibitor and the use thereof” (BEIGENE, LTD., priority 2019, dated 2025).
